Assays:
[1] = Absolute bioavailability (F value) from single-dose oral and i.v. blood AUC; assay type: in vivo, Sprague–Dawley rats; settings: single-dose oral vs i.v. AUC; data not shown
Procedure: All in vivo and analytical experimental segments were performed in accordance with Good Laboratory Practice standards (OECD [1998]) and the adopted TK experimental design conformed to approaches set out in OECD TG 417 ([2010]). Comparative TK data for the various test items were obtained after single doses, and repeated dose administration for 28 days. This was based on measurement of Ag levels in whole blood at various timepoints, and also total Ag content in tissues (in the repeated dose study phase). This approach facilitated a direct quantitative comparison of parameters such as bioavailability, achieved systemic exposure and the delivered Ag dose to tissues after administration of the different Ag test items. Determination of single-dose p.o. and i.v. blood-level profiles was intended to provide information on absolute bioavailability (F value). Parallel vehicle control groups were included within each phase.
Animals (4 per sex/per treatment level) received test item via i.v. injection or oral gavage administration. Intravenous injection (bolus) was via the tail vein. Oral gavage administration was performed using a suitable graduated syringe and a rubber catheter. Dosing volumes for i.v. and oral administration were calculated based on the individual animal bodyweights.

[2] = Toxicokinetics after 28 days repeated oral gavage dosing, total Ag in whole blood (ICP-MS); settings: for AUC0-t / DN AUC0-t: 0 to 96 h post-dose
[3] = Toxicokinetics after single oral gavage dose, total Ag in whole blood (ICP-MS)
[4] = Behaviour, homogeneity and stability of dosing formulations; assay type: physicochemical; settings: oral: 1% MC (AgMP, AgNP) or purified water (AgAc, AgNO3); i.v.: 5% glucose or purified water
Procedure: Further details are provided under Supplementary information.
Polypropylene vessels and containers were used throughout preparation and storage to limit artefactual loss of Ag from adsorption onto surfaces (Sekine et al. [2015]). Vessels were pre-cleaned with a dilute nitric acid solution and then rinsed thoroughly with ultrapure water to remove contaminants. Chloride- or phosphate-containing vehicles and reagents were avoided to prevent Ag precipitation. Dosing formulations were prepared once for the single-dose administrations, and weekly for the repeated dose phase (divided into daily aliquots). […]
An extensive analytical pre-testing program was performed to fully characterize the test items and develop protocols to optimise the homogeneity and stability of dosing formulations. […] The Ag^+ fraction in the silver powder (AgMP) dosing formulations was determined to be a maximum of 0.004%. […]
To assure their accurate concentration, uniform homogeneity and physical stability, dosing formulation concentrations were analytically verified after preparation but before first administration using inductively coupled plasma mass spectrometry (ICP-MS) for determination of total Ag content. […] Samples of each formulation prepared for i.v. and single oral administration, as well as for Weeks 1 and 4 of the repeated dosing segment were analysed. […]

[5] = 28 d oral 5 mg/kg bw/d [Ag equivalent 3.25 AgAc, 3.2 AgNO3], female
[6] = 28 d oral 5 mg/kg bw/d [Ag equivalent 3.25 AgAc, 3.2 AgNO3], male
[7] = 28 d oral 175 [114 Ag] mg/kg bw/d, female
[8] = 28 d oral 175 [114 Ag] mg/kg bw/d, male
[9] = single oral dose 5 mg/kg bw [Ag equivalent 3.25 AgAc, 3.2 AgNO3], female
[10] = single oral dose 5 mg/kg bw [Ag equivalent 3.25 AgAc, 3.2 AgNO3], male
[11] = single oral dose 175 [114 Ag] mg/kg bw, female
[12] = single oral dose 175 [114 Ag] mg/kg bw, male
[13] = 28 d oral 125 [80 Ag] mg/kg bw/d, female
[14] = 28 d oral 125 [80 Ag] mg/kg bw/d, male
[15] = single oral dose 125 [80 Ag] mg/kg bw, female
[16] = single oral dose 125 [80 Ag] mg/kg bw, male

## CC(=O)[O-].[Ag+] [AgAc, Silver(I) acetate]
[1]
  absolute bioavailability (F value): ≤ 5%
[2]; [5]
  AUC0-t: 10,200 ng.h/mL
  DN AUC0-t: 2960 (ng.h/mL)/(mg/kg bw/d)
  Cmax: 216 ng/mL
  Tmax: 3 h
  t1/2: 41.3 h
[2]; [6]
  AUC0-t: 6220 ng·h/mL
  DN AUC0-t: 1770 (ng.h/mL)/(mg/kg bw/d)
  Cmax: 153 ng/mL
  Tmax: 7.5 h
  t1/2: 32.1 h
[2]; [7]
  AUC0-t: 51,000 ng.h/mL
  DN AUC0-t: 400 (ng.h/mL)/(mg/kg bw/d)
  Cmax: 930 ng/mL
  Tmax: 3 h
  t1/2: 40.4 h
[2]; [8]
  AUC0-t: 43,000 ng.h/mL
  DN AUC0-t: 342 (ng.h/mL)/(mg/kg bw/d)
  Cmax: 766 ng/mL
  Tmax: 3 h
  t1/2: 36.3 h
[3]; [9]
  AUC0-t: 2360 ng·h/mL
  Cmax: 108 ng/mL
  DN AUC0-t: 726 (ng.h/mL)/(mg/kg bw/d)
  DN AUC(0–24): 431 (ng.h/mL)/(mg/kg bw/d)
  Tmax: 3.5 h
  t1/2: 24.5 h
[3]; [10]
  AUC0-t: 1430 ng·h/mL
  Cmax: 71.6 ng/mL
  DN AUC0-t: 440 (ng.h/mL)/(mg/kg bw/d)
  DN AUC(0–24): 323 (ng.h/mL)/(mg/kg bw/d)
  Tmax: 5 h
  t1/2: 23.2 h
[3]; [11]
  AUC0-t: 31,100 ng.h/mL
  Cmax: 632 ng/mL
  DN AUC0-t: 273 (ng.h/mL)/(mg/kg bw/d)
  DN AUC(0–24): 87 (ng.h/mL)/(mg/kg bw/d)
  Tmax: 15.3 h
  t1/2: 25.5 h
[3]; [12]
  AUC0-t: 23,300 ng.h/mL
  Cmax: 367 ng/mL
  DN AUC0-t: 204 (ng.h/mL)/(mg/kg bw/d)
  DN AUC(0–24): 55 (ng.h/mL)/(mg/kg bw/d)
  Tmax: 20.3 h
[4]
  Behaviour in dosing vehicles: Soluble up to the highest concentration of test item employed. See also Table 2

## O=[N+]([O-])[O-].[Ag+] [AgNO3, silver(I) nitrate]
[1]
  absolute bioavailability (F value): ≤ 5%
[2]; [5]
  AUC0-t: 7690 ng·h/mL
  Cmax: 177 ng/mL
  Tmax: 6 h
  t1/2: 37.5 h
[2]; [6]
  AUC0-t: 5470 ng·h/mL
  Cmax: 132 ng/mL
  Tmax: 4.5 h
  t1/2: 42.1 h
[2]; [13]
  AUC0-t: 54,100 ng.h/mL
  Cmax: 997 ng/mL
  Tmax: 18 h
  t1/2: 39.8 h
[2]; [14]
  AUC0-t: 42,800 ng.h/mL
  Cmax: 738 ng/mL
  Tmax: 12 h
  t1/2: 42.0 h
[3]; [9]
  AUC0-t: 4610 ng·h/mL
  AUC(0–24): 1740 ng·h/mL
  Cmax: 109 ng/mL
  Tmax: 3.25 h
  t1/2: 30.8 h
[3]; [10]
  AUC0-t: 1550 ng·h/mL
  AUC(0–24): 994 ng·h/mL
  Cmax: 62.5 ng/mL
  Tmax: 2.5 h
  t1/2: 18.7 h
[3]; [15]
  AUC0-t: 18,700 ng.h/mL
  AUC(0–24): 7670 ng·h/mL
  Cmax: 421 ng/mL
  Tmax: 15 h
  t1/2: 31.7 h
[3]; [16]
  AUC0-t: 19,400 ng.h/mL
  AUC(0–24): 5970 ng·h/mL
  Cmax: 348 ng/mL
  Tmax: 21 h
  t1/2: 37.6 h
[4]
  Behaviour in dosing vehicles: Soluble up to the highest concentration of test item employed. See also Table 2

From PMC10256634, “Comparative in vivo toxicokinetics of silver powder, nanosilver and soluble silver compounds after oral administration to rats” (Archives of Toxicology, 2023)
